Laboratory results as given in patent US8993585B2, “Cyclic amine substituted pyrimidinediamines as PKC inhibitors” (Rigel Pharmaceuticals, Inc., priority 2007, dated 2015).

Assays:
PKC theta = biological target: T1, PKC theta (Homo sapiens, UniProt Q04759); assay: PKC assay, fluorescence polarization (Example 2), PKC theta; type: biochemical; settings: 5 μM ATP
T1 construct: purchased Upstate Biotechnologies, Temecula, CA 14-444
Method: The inhibition of PKC activity was measured by monitoring the production of phosphorylated peptide by fluorescence polarization at different concentrations of the inhibitor. Reactions were carried out in 96-well plate format with a total volume of 20 μL containing 20 mM HEPES, pH 7.4, 5 mM MgCl2, 0.2 mM CaCl2, 1 mM DTT, 0.02% Brij-35, 0.1 mg/mL phosphatidylserine, 0.02 mg/mL dioleoyl-sn-glycerol and 5 μM each of ATP and the peptide substrate. Compounds were first diluted serially in DMSO and then transferred to a solution containing the above concentrations of HEPES, MgCl2, CaCl2, DTT, and Brij-35 to yield 5× compound solutions in 2% DMSO, which was then added to the reaction solution. Reactions were initiated by the addition of PKC at a typical concentration as described in Table VI, and then allowed to incubate at room temperature for 20 min. At the end of this time, a combination of quench (EDTA) and detection (peptide tracer and antibody) reagents was added using the protocol of Invitrogen P2748.

Human primary T cells = assay: IL-2 ELISA, Human Primary T Cell, Anti-CD3+CD28+ (Example 3); type: cell-based; settings: anti-CD3+CD28 stimulation
Method in brief: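 Human primary T cells, 100,000 per well, were pre-incubated with compound in Yssel's medium for 1 h at 37 °C. The counter-assay used 0.5 ng/ml PMA with 0.1 uM ionomycin final.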

T1 sequence (Q04759 whole entry): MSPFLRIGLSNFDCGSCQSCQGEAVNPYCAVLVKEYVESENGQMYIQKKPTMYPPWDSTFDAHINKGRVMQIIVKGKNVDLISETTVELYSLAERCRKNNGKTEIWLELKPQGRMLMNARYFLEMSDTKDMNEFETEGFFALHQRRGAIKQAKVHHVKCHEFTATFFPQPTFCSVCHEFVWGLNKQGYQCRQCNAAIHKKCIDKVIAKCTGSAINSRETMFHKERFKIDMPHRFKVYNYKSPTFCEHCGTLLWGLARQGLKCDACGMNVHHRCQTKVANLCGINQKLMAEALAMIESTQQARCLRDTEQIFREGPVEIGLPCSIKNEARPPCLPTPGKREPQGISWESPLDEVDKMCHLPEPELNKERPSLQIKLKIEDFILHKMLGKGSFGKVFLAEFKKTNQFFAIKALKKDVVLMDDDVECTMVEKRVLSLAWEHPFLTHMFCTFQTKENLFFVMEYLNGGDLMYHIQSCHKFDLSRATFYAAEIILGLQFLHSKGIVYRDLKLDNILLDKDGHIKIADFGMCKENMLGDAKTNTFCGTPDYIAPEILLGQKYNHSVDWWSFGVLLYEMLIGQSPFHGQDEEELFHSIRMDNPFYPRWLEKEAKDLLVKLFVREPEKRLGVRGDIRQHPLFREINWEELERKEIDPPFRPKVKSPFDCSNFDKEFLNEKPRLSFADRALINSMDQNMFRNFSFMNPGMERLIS

SMILES	IC50 (PKC theta) [nM]	IC50 (Human primary T cells; Homo sapiens, T-cell, 24 h) [nM]	IC50 (Human primary T cells; 24 hours) [nM]
CN1C(C)(C)CC(Nc2nc(Nc3ccc(-c4ccncc4)c(C#N)c3)ncc2F)CC1(C)C [Compound I-185]	7.65	299	–
CN1C(C)(C)CC(Nc2nc(Nc3ccc(N4CCN(S(C)(=O)=O)CC4)c(C(F)(F)F)c3)ncc2C#N)CC1(C)C [Compound I-95]	43	347	–
CN1CCN(c2ccc(Nc3ncc(F)c(NC4CC(C)(C)N(C)C(C)(C)C4)n3)cc2F)CC1 [Compound I-39]	15	937	–
Cc1ccc2cc(Nc3ncc(F)c(NC4CC(C)(C)N(C)C(C)(C)C4)n3)ccc2n1 [II-7]	53.2	476	–
CN1CCC(Nc2nc(Nc3ccc(N4CCN(C)CC4)c(C(F)(F)F)c3)ncc2F)CC1 [III-3, 5-Fluoro-N2-[4-(4-methylpiperazino)-3-trifluoromethyl]phenyl-N4-(1-methylpiperidin-4-yl)-2,4-pyrimidinediamine]	18	619	–
CN1C(C)(C)CC(Nc2nc(Nc3cccc(OC(F)F)c3)ncc2F)CC1(C)C [Compound I-234]	13.6	222	–
Cc1cc(C)cc(Nc2ncc(F)c(NC3CC(C)(C)N(C)C(C)(C)C3)n2)c1 [Compound I-12]	22	341	–
CN1C(C)(C)CC(Nc2nc(Nc3ccc(N4CCOCC4)c(C#N)c3)ncc2F)CC1(C)C [Compound I-198]	1.94	175	–
CN1C(C)(C)CC(Nc2nc(Nc3ccc(-c4ccoc4)c(Cl)c3)ncc2F)CC1(C)C [Compound I-155]	14.4	418	–
COc1ccc(Nc2ncc(Cl)c(NC3CC(C)(C)N(C)C(C)(C)C3)n2)cc1Cl [Compound I-31]	5	91	–
CN1CCN(c2ccc(Nc3ncc(F)c(NC4CC(C)(C)N(C)C(C)(C)C4)n3)cc2OC(F)F)CC1 [Compound I-236]	2.41	–	121
CN1C(C)(C)CC(Nc2nc(Nc3ccc(OC(F)(F)F)c(-c4cccnc4)c3)ncc2F)CC1(C)C [Compound I-208]	52	467	–
CN1C(C)(C)CC(Nc2nc(Nc3ccc(N4CCC(F)(F)CC4)c(C(F)(F)F)c3)ncc2F)CC1(C)C [Compound I-245]	329	539	–
Cc1ccc(Nc2ncc(F)c(NC3CC(C)(C)N(C)C(C)(C)C3)n2)cc1-c1cnn(C)c1 [Compound I-190]	14.5	516	–
CN1C(C)(C)CC(Nc2nc(Nc3ccc(F)c(Br)c3)ncc2F)CC1(C)C [Compound I-158]	20.6	489	–
CN1C(=O)COc2cc(Nc3ncc(F)c(NC4CC(C)(C)N(C)C(C)(C)C4)n3)ccc21 [II-6]	6.06	244	–
CN1C(C)(C)CC(Nc2nc(Nc3ccc(Br)c(Cl)c3)ncc2F)CC1(C)C [Compound I-153]	10.2	209	–
CN1C(C)(C)CC(Nc2nc(Nc3ccc(C(F)(F)F)c(Cl)c3)ncc2F)CC1(C)C [Compound I-337]	249	311	–
CCN1C(=O)CCc2cc(Nc3ncc(F)c(NC4CC(C)(C)N(C)C(C)(C)C4)n3)ccc21 [II-5]	37.8	561	–
CN1CCN(c2ccc(Nc3ncc(C(F)(F)F)c(NC4CC(C)(C)N(C)C(C)(C)C4)n3)cc2Cl)CC1 [Compound I-34]	4	123	–
Cc1ccc(Nc2ncc(F)c(NC3CC(C)(C)N(C)C(C)(C)C3)n2)cc1Cl [Compound I-332]	36	299	–
CN1C(C)(C)CC(Nc2nc(Nc3ccc(C#N)c(Cl)c3)ncc2F)CC1(C)C [Compound I-22]	21	177	–
CN1C(C)(C)CC(Nc2nc(Nc3cc(C(F)(F)F)cc(C(F)(F)F)c3)ncc2F)CC1(C)C [Compound I-146]	123	252	–
CN1C(C)(C)CC(Nc2nc(Nc3ncc([N+](=O)[O-])s3)ncc2F)CC1(C)C [II-14]	–	2570	–
CN1C(C)(C)CCC(Nc2nc(Nc3cc(Cl)cc(Cl)c3)ncc2F)CC1(C)C (centres unmarked) [Compound I-265, 5-Fluoro-N2-[3,5-dichloro]phenyl-N4-(1,2,2,7,7-pentamethylazepan-4-yl)-2,4-pyrimidinediamine]	–	–	4320
CN1C(C)(C)CC(Nc2nc(Nc3ccc(Cl)c(N4CCN(S(C)(=O)=O)CC4)c3)ncc2F)CC1(C)C [Compound I-68]	–	–	589
Cc1nc2cc(Nc3ncc(F)c(NC4CC(C)(C)N(C)C(C)(C)C4)n3)ccc2o1 [II-30]	–	11100	–
CN1C(C)(C)CC(Nc2nc(Nc3cccc(C#N)c3)ncc2C(N)=O)CC1(C)C [Compound I-86]	–	–	4990
COc1ccc(Nc2ncc(F)c(NC3CCC(C)(C)N(C)C(C)(C)C3)n2)cc1OC (centres unmarked) [Compound I-267, 5-Fluoro-N2-[3,4-dimethoxy]phenyl-N4-(1,2,2,7,7-pentamethylazepan-4-yl)-2,4-pyrimidinediamine]	–	–	11700
CC1(C)CC(Nc2nc(Nc3ccc4c(c3)OCC(C(N)=O)O4)ncc2F)CC(C)(C)N1 (centres unmarked) [II-159]	–	8910	–
